Where two headings read alike, the source gives them in different places.
Legend:
[1] = biological target: HBV core protein (UniProt P03146); type: biochemical; settings: read-out: Assembly Activity (IC50); BODIPY-FL labelled core protein, assembly started with NaCl, read after 6 min
Summary of the method: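 Compounds tested at 8 concentrations in 0.5-log steps from 100, 31.6 or 10 μM against 1.0–2.0 μM BODIPY-FL-labelled Cys150 core dimers (residues 1–149), 50 mM HEPES pH 7.5. NaCl ([…] final) triggered assembly; quenching read at 6 min, 477/525 nm, with 2.5 M and 0 M NaCl as controls; EC50 by nonlinear fit.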

[2] = tested on: HBV; experiment: Determination of HBV DNA from the supernatants of HepAD38 cells (anti-HBV activity); type: cell-based, hepatitis B virus; settings: Hepatitis B virus, read-out: Cell Activity (EC50)
Summary of the method: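 EC50 values were obtained by non-linear regression of HBV DNA copy numbers measured by qPCR against pCH-9/3091 plasmid standards. The DNA came from filtered supernatants collected on day 6. Before that, tetracycline-withdrawn HepAD38 cells had been exposed to serial half-log compound dilutions, with tetracycline-treated cells as the non-producing control.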

[3] = 144 h, HBV DNA in HepAD38 supernatant at day 6

Sequence of HBV core protein (P03146 whole entry, looked up, the tested form may be a part): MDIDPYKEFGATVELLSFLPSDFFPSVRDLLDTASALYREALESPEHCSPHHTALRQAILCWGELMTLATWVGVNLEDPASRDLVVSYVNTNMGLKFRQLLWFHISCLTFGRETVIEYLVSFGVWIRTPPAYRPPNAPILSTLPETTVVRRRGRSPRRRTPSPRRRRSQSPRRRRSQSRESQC

**Q.** How did the IC50 [1] turn out when `O=C(c1cc2c(Cl)cc(F)cc2[nH]1)N1CCc2nc(NC3CCOC3)sc2C1` (centres unmarked) [Example 140, 5-(4-chloro-6-fluoro-1H-indole-2-carbonyl)-N-(oxolan-3-yl)-4H,5H,6H,7H-[1,3]thiazolo[5,4-c]pyridin-2-amine] was run?
**A.** < 5 µM

**Q.** What about the EC50 [2, 3] of the same compound?
**A.** < 1 µM

**Q.** What does the source list for `CN1CCOCC1CNc1nc2c(s1)CN(C(=O)c1cc3ccccc3[nH]1)CC2` (centres unmarked) [Example 294, 5-(1H-indole-2-carbonyl)-N-[(4-methylmorpholin-3-yl)methyl]-4H,5H,6H,7H-[1,3]thiazolo[5,4-c]pyridin-2-amine]?
**A.** IC50 [1]: < 5 µM; EC50 [2, 3]: < 1 µM

**Q.** With `CC(C)OC(=O)[C@H](C)NP(=O)(OCC1(CNc2nc3c(s2)CN(C(=O)c2cc4c(F)cc(F)cc4[nH]2)CC3)CC1)Oc1ccccc1` (stereo partly drawn) [Example 37, Propan-2-yl (2S)-2-[({[1-({[5-(4,6-difluoro-1H-indole-2-carbonyl)-4H,5H,6H,7H-[1,3]thiazolo[5,4-c]pyridin-2-yl]amino}methyl)cyclopropyl]methoxy}(phenoxy)phosphoryl)amino]propanoate] as the compound, how does the IC50 [1] read?
**A.** < 100 µM

**Q.** And the EC50 ([2]; HePAD38, 144 h)?
**A.** < 1 µM

**Q.** What does the source list for `CCc1cc(F)cc2[nH]c(C(=O)N3CCc4nc(NC[C@@H]5CCOC5)sc4C3)cc12` [Example 328, 5-(4-ethyl-6-fluoro-1H-indole-2-carbonyl)-N-{[(3S)-oxolan-3-yl]methyl}-4H,5H,6H,7H-[1,3]thiazolo[5,4-c]pyridin-2-amine]?
**A.** IC50 [1]: < 5 µM; EC50 [2, 3]: < 1 µM

**Q.** How did the IC50 [1] turn out when `COc1cccc2[nH]c(C(=O)N3CCc4nc(C)sc4C3)cc12` [Example 194, 4-methoxy-2-{2-methyl-4H,5H,6H,7H-[1,3]thiazolo[5,4-c]pyridine-5-carbonyl}-1H-indole] was run?
**A.** < 100 µM

**Q.** What about the EC50 [2, 3] of the same compound?
**A.** < 100 µM

**Q.** Which IC50 [1] does the source give for `Cc1ccc2cc(C(=O)N3CCc4nc(N)sc4C3)[nH]c2c1` [Example 150, 5-(6-methyl-1H-indole-2-carbonyl)-4H,5H,6H,7H-[1,3]thiazolo[5,4-c]pyridin-2-amine] here?
**A.** < 5 µM

**Q.** What about the EC50 [2, 3] of the same compound?
**A.** < 1 µM

**Q.** With `O=C(c1cc2ccccc2[nH]1)N1CCc2nc(CO)sc2C1` [Example 31, [5-(1H-indole-2-carbonyl)-4H,5H,6H,7H-[1,3]thiazolo[5,4-c]pyridin-2-yl]methanol] as the compound, how does the IC50 [1] read?
**A.** 5 to 10 µM

**Q.** And the EC50 [2, 3]?
**A.** 1 to 10 µM

**Q.** Which results are given for `O=C(c1cc2ccccc2[nH]1)N1CCc2nc(N3CC4COCCN4C3)sc2C1` (centres unmarked) [Example 295, 2-(2-{hexahydro-1H-imidazo[4,3-c][1,4]oxazin-2-yl}-4H,5H,6H,7H-[1,3]thiazolo[5,4-c]pyridine-5-carbonyl)-1H-indole]?
**A.** IC50 [1]: < 100 µM; EC50 [2, 3]: 1 to 10 µM

**Q.** What does the source list for `O=C(c1cc2ccccc2[nH]1)N1CCc2nc(N3CCOCC3)sc2C1` [Example 166, 2-[2-(morpholin-4-yl)-4H,5H,6H,7H-[1,3]thiazolo[5,4-c]pyridine-5-carbonyl]-1H-indole]?
**A.** IC50 [1]: < 100 µM; EC50 [2, 3]: 1 to 10 µM

**Q.** What does the source list for `CCNCc1nc2c(s1)CN(C(=O)c1cc3ccccc3[nH]1)CC2` [Example 32, Ethyl({[5-(1H-indole-2-carbonyl)-4H,5H,6H,7H-[1,3]thiazolo[5,4-c]pyridin-2-yl]methyl})amine]?
**A.** IC50 [1]: < 100 µM; EC50 [2, 3]: < 100 µM

**Q.** For `COC(=O)[C@@H]1C[C@H](Nc2nc3c(s2)CN(C(=O)c2cc4ccccc4[nH]2)CC3)CN1` [Example 289, Methyl (2S,4S)-4-{[5-(1H-indole-2-carbonyl)-4H,5H,6H,7H-[1,3]thiazolo[5,4-c]pyridin-2-yl]amino}pyrrolidine-2-carboxylate], which IC50 [1] is on record?
**A.** < 5 µM

**Q.** What about the EC50 [2, 3] of the same compound?
**A.** < 100 µM

**Q.** For `O=C(c1cc2c(Cl)cccc2[nH]1)N1CCc2nc(NC3(CO)CCC3)sc2C1` [Example 224, (1-{[5-(4-chloro-1H-indole-2-carbonyl)-4H,5H,6H,7H-[1,3]thiazolo[5,4-c]pyridin-2-yl]amino}cyclobutyl)methanol], which IC50 [1] is on record?
**A.** < 5 µM

**Q.** And the EC50 [2, 3]?
**A.** < 1 µM

**Q.** What does the source list for `CCc1ccc(F)c2[nH]c(C(=O)N3CCc4nc(NCC5(CO)CC5)sc4C3)cc12` [Example 236, [1-({[5-(4-ethyl-7-fluoro-1H-indole-2-carbonyl)-4H,5H,6H,7H-[1,3]thiazolo[5,4-c]pyridin-2-yl]amino}methyl)cyclopropyl]methanol]?
**A.** IC50 [1]: < 5 µM; EC50 [2, 3]: < 1 µM

**Q.** What does the source list for `Nc1nc2c(s1)CN(C(=O)c1cc3c(F)c(F)ccc3[nH]1)CC2` [Example 172, 5-(4,5-difluoro-1H-indole-2-carbonyl)-4H,5H,6H,7H-[1,3]thiazolo[5,4-c]pyridin-2-amine]?
**A.** IC50 [1]: < 5 µM; EC50 [2, 3]: < 1 µM

**Q.** With `Nc1nc2c(s1)CN(C(=O)c1cc3c(Cl)c(Cl)ccc3[nH]1)CC2` [Example 176, 5-(4,5-dichloro-1H-indole-2-carbonyl)-4H,5H,6H,7H-[1,3]thiazolo[5,4-c]pyridin-2-amine] as the compound, how does the IC50 [1] read?
**A.** 5 to 10 µM

**Q.** What about the EC50 [2, 3] of the same compound?
**A.** 1 to 10 µM

**Q.** With `COCC1(C(=O)Nc2nc3c(s2)CN(C(=O)c2cc4ccccc4[nH]2)CC3)CC1` [Example 330, N-[5-(1H-indole-2-carbonyl)-4H,5H,6H,7H-[1,3]thiazolo[5,4-c]pyridin-2-yl]-1-(methoxymethyl)cyclopropane-1-carboxamide] as the compound, how does the IC50 [1] read?
**A.** 5 to 10 µM

**Q.** And the EC50 [2, 3]?
**A.** < 1 µM

**Q.** For `Nc1nc2c(s1)CN(C(=O)c1cc3c(F)cc(Cl)cc3[nH]1)CC2` [Example 147, 5-(6-chloro-4-fluoro-1H-indole-2-carbonyl)-4H,5H,6H,7H-[1,3]thiazolo[5,4-c]pyridin-2-amine], which IC50 [1] is on record?
**A.** < 5 µM

**Q.** And the EC50 [2, 3]?
**A.** < 1 µM

**Q.** `CNC(=O)Nc1nc2c(s1)CN(C(=O)c1cc3ccccc3[nH]1)CC2` [Example 28, 1-[5-(1H-indole-2-carbonyl)-4H,5H,6H,7H-[1,3]thiazolo[5,4-c]pyridin-2-yl]-3-methylurea] was tested. Which IC50 [1] did it give?
**A.** < 5 µM

**Q.** And the EC50 [2, 3]?
**A.** < 1 µM

**Q.** For `Cc1cccc2[nH]c(C(=O)N3CCc4nc(NCC5CCOC5)sc4C3)cc12` (centres unmarked) [Example 124, 5-(4-methyl-1H-indole-2-carbonyl)-N-[(oxolan-3-yl)methyl]-4H,5H,6H,7H-[1,3]thiazolo[5,4-c]pyridin-2-amine], which IC50 [1] is on record?
**A.** < 5 µM

**Q.** And the EC50 [2, 3]?
**A.** < 1 µM

**Q.** For `Nc1nc2c(s1)CN(C(=O)c1cc3c(Cl)ccc(F)c3[nH]1)CC2` [Example 85, 5-(4-chloro-7-fluoro-1H-indole-2-carbonyl)-4H,5H,6H,7H-[1,3]thiazolo[5,4-c]pyridin-2-amine], which IC50 [1] is on record?
**A.** < 5 µM

**Q.** And the EC50 [2, 3]?
**A.** < 1 µM

**Q.** How did the IC50 [1] turn out when `Cc1cc(F)cc2[nH]c(C(=O)N3CCc4nc(NCC5(O)CCC5)sc4C3)cc12` [Example 312, 1-({[5-(6-fluoro-4-methyl-1H-indole-2-carbonyl)-4H,5H,6H,7H-[1,3]thiazolo[5,4-c]pyridin-2-yl]amino}methyl)cyclobutan-1-ol] was run?
**A.** < 5 µM

**Q.** What about the EC50 [2, 3] of the same compound?
**A.** < 1 µM

**Q.** What does the source list for `O=C(c1cc2ccccc2[nH]1)N1CCc2nc(NCC3(O)CC3)sc2C1` [Example 405, 1-({[5-(1H-indole-2-carbonyl)-4H,5H,6H,7H-[1,3]thiazolo[5,4-c]pyridin-2-yl]amino}methyl)cyclopropan-1-ol]?
**A.** IC50 [1]: < 5 µM; EC50 [2, 3]: < 1 µM

**Q.** How did the IC50 [1] turn out when `O=C(c1cc2ccccc2[nH]1)N1CCc2nc(NC3CCC3)sc2C1` [Example 429, N-cyclobutyl-5-(1H-indole-2-carbonyl)-4H,5H,6H,7H-[1,3]thiazolo[5,4-c]pyridin-2-amine] was run?
**A.** < 5 µM

**Q.** And the EC50 [2, 3]?
**A.** < 1 µM

**Q.** For `O=C(c1cc2c(F)ccc(F)c2[nH]1)N1CCc2nc(NCC3(CO)CC3)sc2C1` [Example 59, [1-({[5-(4,7-difluoro-1H-indole-2-carbonyl)-4H,5H,6H,7H-[1,3]thiazolo[5,4-c]pyridin-2-yl]amino}methyl)cyclopropyl]methanol], which IC50 [1] is on record?
**A.** < 5 µM

**Q.** And the EC50 [2, 3]?
**A.** < 1 µM

**Q.** What does the source list for `COCC(C)Nc1nc2c(s1)CN(C(=O)c1cc3ccccc3[nH]1)CC2` (centres unmarked) [Example 70, 5-(1H-indole-2-carbonyl)-N-(1-methoxypropan-2-yl)-4H,5H,6H,7H-[1,3]thiazolo[5,4-c]pyridin-2-amine]?
**A.** IC50 [1]: < 5 µM; EC50 [2, 3]: < 1 µM

**Q.** What does the source list for `O=C(c1cc2ccccc2[nH]1)N1CCc2nc(N[C@@H]3CCCC[C@H]3O)sc2C1` [Example 269, (1R,2R)-2-{[5-(1H-indole-2-carbonyl)-4H,5H,6H,7H-[1,3]thiazolo[5,4-c]pyridin-2-yl]amino}cyclohexan-1-ol]?
**A.** IC50 [1]: < 5 µM; EC50 [2, 3]: < 1 µM

**Q.** `CC1(C(=O)Nc2nc3c(s2)CN(C(=O)c2cc4ccccc4[nH]2)CC3)CC1` [Example 274, N-[5-(1H-indole-2-carbonyl)-4H,5H,6H,7H-[1,3]thiazolo[5,4-c]pyridin-2-yl]-1-methylcyclopropane-1-carboxamide] was tested. Which IC50 [1] did it give?
**A.** < 5 µM

**Q.** What about the EC50 [2, 3] of the same compound?
**A.** < 1 µM

**Q.** `COCC(=O)Nc1nc2c(s1)CN(C(=O)c1cc3ccccc3[nH]1)CC2` [Example 3, N-[5-(1H-indole-2-carbonyl)-4H,5H,6H,7H-[1,3]thiazolo[5,4-c]pyridin-2-yl]-2-methoxyacetamide] was tested. Which IC50 [1] did it give?
**A.** < 5 µM

**Q.** What about the EC50 [2, 3] of the same compound?
**A.** < 1 µM

**Q.** For `Nc1nc2c(s1)CN(C(=O)c1cc3c(Cl)cc(F)cc3[nH]1)CC2` [Example 167, 5-(4-chloro-6-fluoro-1H-indole-2-carbonyl)-4H,5H,6H,7H-[1,3]thiazolo[5,4-c]pyridin-2-amine], which IC50 [1] is on record?
**A.** < 5 µM

**Q.** What about the EC50 [2, 3] of the same compound?
**A.** < 1 µM

**Q.** For `CC(F)(F)c1cc(F)cc2[nH]c(C(=O)N3CCc4nc(N)sc4C3)cc12` [Example 290, 5-[4-(1,1-difluoroethyl)-6-fluoro-1H-indole-2-carbonyl]-4H,5H,6H,7H-[1,3]thiazolo[5,4-c]pyridin-2-amine], which IC50 [1] is on record?
**A.** < 5 µM

**Q.** What about the EC50 [2, 3] of the same compound?
**A.** < 1 µM

**Q.** What does the source list for `CC(O)CNc1nc2c(s1)CN(C(=O)c1cc3ccccc3[nH]1)CC2` (stereo in doubt) [Example 131, (2S)-1-{[5-(1H-indole-2-carbonyl)-4H,5H,6H,7H-[1,3]thiazolo[5,4-c]pyridin-2-yl]amino}propan-2-ol]?
**A.** IC50 [1]: < 5 µM; EC50 [2, 3]: < 1 µM

— patent US11267825B2 (AICURIS GMBH & CO. KG, priority 2017, dated 2022)
